Assay results from ChEMBL document CHEMBL1201862, “PubChem BioAssay data set” (2004).
Calls of active or inactive are those of the source.

How the values were obtained:
[1] = growth suppression of beta-catenin-knockout colon cells, dose response, cell-based, HCT116, human colon tumor (AID 1045); type: functional;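 note: HCT116 colon tumor cells with beta catenin knocked out; cells exposed to compound for 60 hours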
[2] = inhibitors of firefly luciferase expression or activity, dose response, H4 neuroglioma cells, luminescence (AID 1990); type: functional, cell-based
[3] = inhibitors of SNCA 5'UTR-driven reporter translation, confirmation, H4 neuroglioma cells, luminescence (AID 1988); type: functional, cell-based
[4] = Luminescence Cell-Based Dose Response HTS to Identify Inhibitors of 5'UTR Stem-Loop Driven Prion Protein mRNA Translation in H4 Neuroglioblastoma Cells. [Related pubchem assays: 1827 (Project Summary), 1813 (Primary HTS)]; type: functional
[5] = Vero cell cytotoxicity, dose response, cytotoxicity control for Vif-APOBEC3G degradation inhibitor project, Vero cells (AID 1117358); type: functional; settings: Human immunodeficiency virus 1, Vero
[6] = biological target: Voltage-dependent T-type calcium channel subunit alpha-1H (Homo sapiens, UniProt O95180); type: functional;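 note: channel activity triggered by adding a high calcium stimulation buffer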
Voltage-dependent T-type calcium channel subunit alpha-1H, sequence (O95180 whole entry): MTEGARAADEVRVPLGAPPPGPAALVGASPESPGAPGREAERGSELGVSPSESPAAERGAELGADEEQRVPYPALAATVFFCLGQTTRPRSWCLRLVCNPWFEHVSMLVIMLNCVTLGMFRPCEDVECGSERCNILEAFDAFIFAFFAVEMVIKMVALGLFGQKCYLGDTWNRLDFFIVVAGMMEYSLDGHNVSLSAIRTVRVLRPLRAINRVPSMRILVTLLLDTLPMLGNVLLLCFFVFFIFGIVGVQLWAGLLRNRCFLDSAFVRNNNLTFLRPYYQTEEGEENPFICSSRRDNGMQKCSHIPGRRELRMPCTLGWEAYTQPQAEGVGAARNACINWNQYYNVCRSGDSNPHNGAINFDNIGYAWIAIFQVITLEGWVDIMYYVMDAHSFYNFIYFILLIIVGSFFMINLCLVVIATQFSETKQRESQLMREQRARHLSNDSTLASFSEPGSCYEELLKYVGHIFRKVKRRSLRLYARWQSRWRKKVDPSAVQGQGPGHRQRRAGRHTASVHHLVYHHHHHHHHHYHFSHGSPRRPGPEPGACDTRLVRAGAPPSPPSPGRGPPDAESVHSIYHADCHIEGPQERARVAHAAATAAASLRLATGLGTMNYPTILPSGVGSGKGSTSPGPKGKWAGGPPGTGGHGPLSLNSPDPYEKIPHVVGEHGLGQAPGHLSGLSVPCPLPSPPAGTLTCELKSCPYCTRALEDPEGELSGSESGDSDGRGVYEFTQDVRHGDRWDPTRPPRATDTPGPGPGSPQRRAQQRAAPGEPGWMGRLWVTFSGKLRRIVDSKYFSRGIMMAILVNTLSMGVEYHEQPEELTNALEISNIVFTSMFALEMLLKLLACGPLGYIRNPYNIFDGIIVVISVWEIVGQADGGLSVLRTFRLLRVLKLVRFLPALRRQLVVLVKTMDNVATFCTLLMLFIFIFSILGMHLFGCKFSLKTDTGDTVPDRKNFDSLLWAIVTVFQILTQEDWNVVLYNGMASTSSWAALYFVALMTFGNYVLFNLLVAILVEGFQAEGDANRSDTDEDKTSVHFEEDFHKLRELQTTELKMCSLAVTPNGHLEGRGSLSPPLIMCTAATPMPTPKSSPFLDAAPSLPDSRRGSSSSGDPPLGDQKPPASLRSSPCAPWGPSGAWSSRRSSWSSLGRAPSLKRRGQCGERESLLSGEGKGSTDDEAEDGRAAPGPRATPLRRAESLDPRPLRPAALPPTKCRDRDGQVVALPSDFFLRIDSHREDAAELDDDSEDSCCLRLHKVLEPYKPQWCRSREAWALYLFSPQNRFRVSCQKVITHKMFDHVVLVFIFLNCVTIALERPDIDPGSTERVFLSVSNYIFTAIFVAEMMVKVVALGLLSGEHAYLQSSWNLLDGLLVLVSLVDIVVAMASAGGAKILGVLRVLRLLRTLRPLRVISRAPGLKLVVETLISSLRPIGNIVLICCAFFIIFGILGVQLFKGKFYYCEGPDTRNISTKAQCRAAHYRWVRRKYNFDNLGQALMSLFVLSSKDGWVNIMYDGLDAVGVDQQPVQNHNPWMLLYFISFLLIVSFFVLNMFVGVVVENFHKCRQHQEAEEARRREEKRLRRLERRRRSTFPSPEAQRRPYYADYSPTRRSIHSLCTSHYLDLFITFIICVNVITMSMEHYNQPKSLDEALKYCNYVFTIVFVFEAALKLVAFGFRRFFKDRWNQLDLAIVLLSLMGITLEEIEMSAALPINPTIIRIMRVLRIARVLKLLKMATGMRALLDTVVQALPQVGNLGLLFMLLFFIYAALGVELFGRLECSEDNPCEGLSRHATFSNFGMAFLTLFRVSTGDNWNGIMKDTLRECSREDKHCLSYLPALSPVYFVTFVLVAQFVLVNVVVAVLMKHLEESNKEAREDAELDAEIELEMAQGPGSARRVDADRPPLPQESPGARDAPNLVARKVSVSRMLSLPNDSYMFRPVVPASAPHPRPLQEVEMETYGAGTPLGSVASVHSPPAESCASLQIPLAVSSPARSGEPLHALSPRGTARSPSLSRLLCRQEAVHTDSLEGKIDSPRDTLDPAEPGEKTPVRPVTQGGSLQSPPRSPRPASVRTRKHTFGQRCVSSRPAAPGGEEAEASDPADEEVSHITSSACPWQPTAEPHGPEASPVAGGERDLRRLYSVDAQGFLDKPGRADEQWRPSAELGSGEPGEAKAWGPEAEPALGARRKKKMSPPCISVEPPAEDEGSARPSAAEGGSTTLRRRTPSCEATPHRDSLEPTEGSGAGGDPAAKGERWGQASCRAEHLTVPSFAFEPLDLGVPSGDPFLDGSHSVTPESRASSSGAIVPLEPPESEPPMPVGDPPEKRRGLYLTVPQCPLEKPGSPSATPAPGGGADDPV

[7] = growth suppression of PTEN-null colon cells, dose response, cell-based, HCT116 PTEN knockout (AID 1047); type: functional;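 note: HCT116 colon tumor cells with PTEN knocked out; cells exposed to compound for 60 hours before readout; potency for loss of cell viability measured by luminescence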
[8] = biological target: Peroxisome proliferator-activated receptor gamma/Nuclear receptor corepressor 2 (Homo sapiens, UniProt P37231+Q9Y618); experiment: Counterscreen for NR2E3 inverse agonists: TR-FRET-based biochemical high throughput dose response assay to identify inverse agonists of the interaction between peroxisome proliferator-activated receptor gamma (PPARg) and nuclear receptor co-repressor 2 (NCOR2).; type: functional
[9] = biological target: Photoreceptor-specific nuclear receptor (Homo sapiens, UniProt Q9Y5X4); experiment: NR2E3 inverse agonists, dose response, biochemical, TR-FRET (AID 463256); type: functional
Photoreceptor-specific nuclear receptor, sequence (Q9Y5X4 whole entry): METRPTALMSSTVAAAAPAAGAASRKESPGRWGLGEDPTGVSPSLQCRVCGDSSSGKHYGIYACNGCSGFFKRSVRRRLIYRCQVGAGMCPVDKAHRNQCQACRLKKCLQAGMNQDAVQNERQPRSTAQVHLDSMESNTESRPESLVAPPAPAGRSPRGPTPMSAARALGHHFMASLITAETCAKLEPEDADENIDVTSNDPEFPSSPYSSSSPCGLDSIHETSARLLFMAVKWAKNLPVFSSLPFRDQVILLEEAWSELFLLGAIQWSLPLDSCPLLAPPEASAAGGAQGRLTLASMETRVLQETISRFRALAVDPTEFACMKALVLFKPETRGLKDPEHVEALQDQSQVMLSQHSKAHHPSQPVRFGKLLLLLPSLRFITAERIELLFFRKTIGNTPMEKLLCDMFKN

[10] = biological target: Bifunctional protein GlmU (Mycobacterium tuberculosis, UniProt P9WMN3); experiment: Inhibitors of Mycobacterial Glucosamine-1-phosphate acetyl transferase (GlmU). Secondary screen.; design: species or system Mycobacterium tuberculosis H37Rv
Bifunctional protein GlmU, sequence (P9WMN3 whole entry): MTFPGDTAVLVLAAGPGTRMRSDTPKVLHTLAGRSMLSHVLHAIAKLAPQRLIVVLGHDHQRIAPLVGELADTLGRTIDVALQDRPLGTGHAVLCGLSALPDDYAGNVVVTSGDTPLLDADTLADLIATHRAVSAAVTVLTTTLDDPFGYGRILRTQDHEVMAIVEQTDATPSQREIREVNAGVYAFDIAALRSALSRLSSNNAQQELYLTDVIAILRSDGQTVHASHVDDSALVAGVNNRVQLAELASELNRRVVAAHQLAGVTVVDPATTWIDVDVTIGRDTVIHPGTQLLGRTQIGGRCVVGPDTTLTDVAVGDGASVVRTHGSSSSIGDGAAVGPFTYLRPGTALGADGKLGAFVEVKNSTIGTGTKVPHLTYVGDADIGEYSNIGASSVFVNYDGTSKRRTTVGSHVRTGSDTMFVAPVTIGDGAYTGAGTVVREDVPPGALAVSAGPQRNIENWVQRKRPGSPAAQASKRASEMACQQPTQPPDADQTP

Large T antigen = Large T antigen (Simian virus 40, UniProt P03070); type: functional, Betapolyomavirus macacae;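 note: Confirmatory-stage PubChem screen for compounds that inhibit SV40 T antigen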
Large T antigen, sequence (P03070 whole entry): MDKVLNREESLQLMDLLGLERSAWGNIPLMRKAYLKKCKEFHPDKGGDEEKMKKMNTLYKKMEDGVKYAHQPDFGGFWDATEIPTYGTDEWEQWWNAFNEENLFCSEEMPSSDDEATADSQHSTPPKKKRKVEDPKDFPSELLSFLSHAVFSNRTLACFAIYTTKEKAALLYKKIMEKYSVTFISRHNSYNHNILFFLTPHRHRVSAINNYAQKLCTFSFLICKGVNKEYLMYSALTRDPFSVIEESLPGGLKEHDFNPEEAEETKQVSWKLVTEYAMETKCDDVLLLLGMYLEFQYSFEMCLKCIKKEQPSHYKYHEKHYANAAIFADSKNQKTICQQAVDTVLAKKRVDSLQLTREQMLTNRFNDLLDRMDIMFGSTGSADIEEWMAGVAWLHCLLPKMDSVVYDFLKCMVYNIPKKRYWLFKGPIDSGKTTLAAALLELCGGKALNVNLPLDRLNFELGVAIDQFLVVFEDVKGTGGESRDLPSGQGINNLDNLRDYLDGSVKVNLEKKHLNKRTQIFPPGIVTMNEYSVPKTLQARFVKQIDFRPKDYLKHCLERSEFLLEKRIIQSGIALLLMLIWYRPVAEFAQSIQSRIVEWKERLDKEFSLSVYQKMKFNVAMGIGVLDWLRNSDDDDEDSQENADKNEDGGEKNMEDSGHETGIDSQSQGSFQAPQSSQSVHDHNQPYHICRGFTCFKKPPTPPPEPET

[11] = biological target: Long-chain-fatty-acid--AMP ligase FadD28 (Mycobacterium tuberculosis, UniProt P9WQ59); experiment: Fluorescence polarization aasay to screen for inhibitors that compete for the binding of FadD28 to a bisubstrate Measured in Biochemical System Using Plate Reader - 2147-01_Inhibitor_Dose_CherryPick_Activity.; type: functional, Mycobacterium tuberculosis H37Rv
Long-chain-fatty-acid--AMP ligase FadD28, sequence (P9WQ59 whole entry): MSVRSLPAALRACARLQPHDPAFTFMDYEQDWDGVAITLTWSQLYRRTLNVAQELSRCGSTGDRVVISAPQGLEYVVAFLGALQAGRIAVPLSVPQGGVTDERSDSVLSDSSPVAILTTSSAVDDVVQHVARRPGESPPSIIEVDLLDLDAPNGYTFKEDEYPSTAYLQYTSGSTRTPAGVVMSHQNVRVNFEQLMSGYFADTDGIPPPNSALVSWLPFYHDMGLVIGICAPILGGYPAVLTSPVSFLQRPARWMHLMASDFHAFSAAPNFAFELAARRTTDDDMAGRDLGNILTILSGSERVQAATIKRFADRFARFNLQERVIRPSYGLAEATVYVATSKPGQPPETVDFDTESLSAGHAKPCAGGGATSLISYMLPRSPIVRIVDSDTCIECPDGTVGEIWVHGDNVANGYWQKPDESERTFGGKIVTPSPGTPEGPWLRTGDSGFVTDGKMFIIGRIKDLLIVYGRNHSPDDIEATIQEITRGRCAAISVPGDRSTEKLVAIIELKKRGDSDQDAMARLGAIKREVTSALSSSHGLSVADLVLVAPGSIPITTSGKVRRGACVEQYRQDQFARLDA

[12] = biological target: T1, Zinc finger protein mex-5 (Caenorhabditis elegans, UniProt Q9XUB2); experiment: MEX-5/TCR-2 RNA interaction inhibitors, dose response, biochemical, C. elegans, fluorescence polarization (AID 1960)
T1 sequence (Q9XUB2 whole entry): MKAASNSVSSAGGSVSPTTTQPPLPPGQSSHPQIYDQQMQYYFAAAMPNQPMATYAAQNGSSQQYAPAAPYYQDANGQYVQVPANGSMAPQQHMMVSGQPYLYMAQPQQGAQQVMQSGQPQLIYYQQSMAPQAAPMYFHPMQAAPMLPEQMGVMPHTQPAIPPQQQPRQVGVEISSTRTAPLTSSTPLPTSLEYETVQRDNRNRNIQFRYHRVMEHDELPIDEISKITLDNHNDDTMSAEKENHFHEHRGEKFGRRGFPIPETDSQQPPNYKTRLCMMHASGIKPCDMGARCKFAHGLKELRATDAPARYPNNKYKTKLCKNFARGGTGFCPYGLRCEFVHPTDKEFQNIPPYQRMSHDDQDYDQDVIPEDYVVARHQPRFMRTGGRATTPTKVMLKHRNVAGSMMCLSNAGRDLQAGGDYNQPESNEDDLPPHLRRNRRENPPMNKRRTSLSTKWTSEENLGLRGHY

[13] = biological target: DNA (cytosine-5)-methyltransferase 1 (Homo sapiens, UniProt P26358); experiment: DNMT1 methyltransferase inhibitors, confirmation, biochemical, fluorescent molecular beacon (AID 602386); type: functional
[14] = biological target: T2, RNA-binding protein pos-1 (Caenorhabditis elegans, UniProt G5EF15); experiment: inhibitors of POS-1/mex-3 RNA binding, dose response, biochemical, fluorescence polarization (AID 1964);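 note: purified POS-1 fused to maltose binding protein made in E. coli; potency of compounds blocking POS-1 binding to fluorescent RNA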
T2 sequence (G5EF15 whole entry): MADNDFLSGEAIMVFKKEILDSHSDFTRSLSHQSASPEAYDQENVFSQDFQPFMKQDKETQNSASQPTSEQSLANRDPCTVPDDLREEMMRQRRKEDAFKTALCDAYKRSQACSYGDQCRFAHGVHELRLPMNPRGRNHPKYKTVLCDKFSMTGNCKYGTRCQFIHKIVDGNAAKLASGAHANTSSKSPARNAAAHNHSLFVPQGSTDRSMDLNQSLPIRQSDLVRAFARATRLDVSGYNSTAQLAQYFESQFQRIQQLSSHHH

[15] = biological target: T3, Carboxy-terminal domain RNA polymerase II polypeptide A small phosphatase 1 (Homo sapiens, UniProt Q9GZU7); experiment: inhibitors of CTDSP1, concentration-response testing, biochemical assay, absorbance-based, actives from ultra-high-throughput screening (AID 540297); type: functional
T3 sequence (Q9GZU7 whole entry): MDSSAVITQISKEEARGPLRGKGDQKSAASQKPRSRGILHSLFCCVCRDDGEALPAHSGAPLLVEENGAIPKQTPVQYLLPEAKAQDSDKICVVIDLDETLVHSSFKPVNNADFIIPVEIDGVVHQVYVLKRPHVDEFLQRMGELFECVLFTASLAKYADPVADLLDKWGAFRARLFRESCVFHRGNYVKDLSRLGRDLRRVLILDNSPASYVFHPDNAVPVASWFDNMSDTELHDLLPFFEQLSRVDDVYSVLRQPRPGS

CCN(Cc1ccccc1)S(=O)(=O)c1ccc(C(=O)Nc2nnc(C3CC3)o2)cc1
> 120 µM (not active): EC50 [2]
active: EC50 [1] 8.9 µM | EC50 [3] 25.3 µM | EC50 [4] 12.6 µM | CC50 [5] 20.2 µM | EC50 [6] 13.7 µM | EC50 [7] 9.37 µM

NC(=O)c1ccc(NC(=O)CNC(=O)c2sc3ccccc3c2Cl)cc1
active: IC50 [8] 2.8 µM | IC50 [9] 4.85 µM

Cc1ccc(NC(=O)CN2C(=O)N/C(=C\c3cccn3-c3cccc(C(=O)O)c3)C2=O)cc1
> 300 µM (not active): EC50 [14]
active: IC50 [10] 103 µM | IC50 (Large T antigen) > 100 µM | AC50 [11] 28 µM | EC50 [12] 54 µM | IC50 [13] 6.05 µM | IC50 [15] 2.2 µM
